From ChEMBL document CHEMBL4825663 (J Med Chem, 2021)
Values after ≈ are worked out from the molar mass of the structure shown.

Molecular target: ATP-dependent translocase ABCB1 (Homo sapiens, UniProt P08183)
Assay: Inhibition of paclitaxel stimulated- P-gp ATPase activity (unknown origin)
Conditions: not given

Chain of ATP-dependent translocase ABCB1 (P08183 whole entry): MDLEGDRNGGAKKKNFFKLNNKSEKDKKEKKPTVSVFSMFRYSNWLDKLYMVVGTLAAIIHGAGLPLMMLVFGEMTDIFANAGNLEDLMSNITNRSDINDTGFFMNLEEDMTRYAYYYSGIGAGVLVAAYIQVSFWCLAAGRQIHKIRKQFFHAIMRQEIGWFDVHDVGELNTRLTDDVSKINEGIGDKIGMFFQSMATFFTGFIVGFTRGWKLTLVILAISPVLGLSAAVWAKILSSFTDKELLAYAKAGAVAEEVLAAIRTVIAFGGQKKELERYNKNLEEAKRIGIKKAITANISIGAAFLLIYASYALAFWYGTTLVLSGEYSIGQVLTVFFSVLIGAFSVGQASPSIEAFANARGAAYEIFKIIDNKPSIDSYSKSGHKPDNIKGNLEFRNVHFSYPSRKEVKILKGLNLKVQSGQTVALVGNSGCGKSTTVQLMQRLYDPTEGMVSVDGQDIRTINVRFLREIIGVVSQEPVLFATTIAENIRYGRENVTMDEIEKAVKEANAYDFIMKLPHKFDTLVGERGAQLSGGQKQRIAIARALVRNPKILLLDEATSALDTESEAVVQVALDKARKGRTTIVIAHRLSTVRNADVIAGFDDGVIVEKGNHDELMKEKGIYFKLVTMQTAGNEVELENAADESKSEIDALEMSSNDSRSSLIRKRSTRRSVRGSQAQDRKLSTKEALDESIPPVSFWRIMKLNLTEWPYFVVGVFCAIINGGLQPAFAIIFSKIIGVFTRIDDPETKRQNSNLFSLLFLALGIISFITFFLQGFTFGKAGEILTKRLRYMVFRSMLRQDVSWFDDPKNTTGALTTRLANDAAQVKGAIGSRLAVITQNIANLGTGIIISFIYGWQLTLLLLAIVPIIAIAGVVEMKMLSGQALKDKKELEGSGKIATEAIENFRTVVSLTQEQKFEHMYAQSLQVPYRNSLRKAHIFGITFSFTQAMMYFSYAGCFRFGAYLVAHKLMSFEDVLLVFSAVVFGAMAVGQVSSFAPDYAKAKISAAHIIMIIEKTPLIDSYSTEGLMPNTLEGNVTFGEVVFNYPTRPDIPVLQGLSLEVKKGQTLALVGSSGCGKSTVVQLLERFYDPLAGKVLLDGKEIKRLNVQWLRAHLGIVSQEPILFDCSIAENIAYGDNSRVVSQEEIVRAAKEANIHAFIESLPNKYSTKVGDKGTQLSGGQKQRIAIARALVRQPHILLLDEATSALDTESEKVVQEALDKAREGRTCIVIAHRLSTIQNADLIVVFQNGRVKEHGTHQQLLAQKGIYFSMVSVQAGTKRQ

| Structure (SMILES) | IC50 |
| --- | --- |
| COc1cc2c(cc1OC)CN(CCc1ccc(NC(=O)c3cc(OC)c(OC)cc3NC(=O)c3cnc4ccccc4c3)cc1)CC2 | 32.7 nM |

System: not listed separately
Assay: Aqueous solubility of compound at pH 5.5
Assay type: physicochemical
Conditions: aqueous solution

| Structure (SMILES) | solubility |
| --- | --- |
| COc1cc2c(cc1OC)CN(CCc1ccc(NC(=O)c3cc(OC)c(OC)cc3NC(=O)c3cnc4ccccc4c3)cc1)CC2 | 2500 µg/mL (≈ 3870 µM) |

System: not listed separately
Assay: Aqueous solubility of compound at neutral pH
Assay type: physicochemical
Conditions: aqueous solution

| Structure (SMILES) | solubility |
| --- | --- |
| COc1cc2c(cc1OC)CN(CCc1ccc(NC(=O)c3cccc4c(=O)c5cccc(OC)c5[nH]c34)cc1)CC2 | 0.123 µg/mL (≈ 0.218 µM) |

System: not listed separately
Assay: Apparent permeability from apical to basolateral side in MDCK-II cells after 120 mins by LC-MS/MS analysis
Assay type: ADME, cell-based, Canis lupus familiaris
Conditions: dog

| Structure (SMILES) | Papp A→B at 2 h |
| --- | --- |
| O[C@@H](COc1cccc2ncccc12)CN1CCN([C@@H]2c3ccccc3[C@@H]3[C@H](c4ccccc42)C3(F)F)CC1 [ZOSUQUIDAR] | 1.1 ×10⁻⁶ cm/s |
| COc1cc2c(cc1OC)CN(CCc1ccc(NC(=O)c3cccc4c(=O)c5cccc(OC)c5[nH]c34)cc1)CC2 | 0.1 ×10⁻⁶ cm/s |
| COc1cc2c(cc1OC)CN(CCc1ccc(NC(=O)c3cc(OC)c(OC)cc3NC(=O)c3cnc4ccccc4c3)cc1)CC2 | 1.1 ×10⁻⁶ cm/s |

System: MES-SA/Dx5
Assay: Selectivity index, ratio of EC50 for inhibition of P-gp (unknown origin) expressed in MES-SA/DX5 cells assessed as increase in paclitaxel-induced cytotoxicity in absence of compound to EC50 for inhibition of P-gp (unknown origin) expressed in MES-SA/DX5 cells assessed as increase in paclitaxel-induced cytotoxicity in presence of compound
Assay type: cell-based
Conditions: Homo sapiens

| Structure (SMILES) | Ratio EC50 |
| --- | --- |
| COc1cc2c(cc1OC)CN(CCc1ccc(-n3nnc(-c4cc(OC)c(OC)cc4NC(=O)c4coc5ccccc5c4=O)n3)cc1)CC2 | 2.1 |
| COc1cc2c(cc1OC)CN(CCc1ccc(-n3nnc(-c4cc(OC)c(OC)cc4NC(=O)c4cc(=O)c5cc(C)ccc5o4)n3)cc1)CC2 | 73.4 |
| COc1cc2c(cc1OC)CN(CCc1ccc(-n3nnc(-c4cc(OC)c(OC)cc4NC(=O)c4cnc5ccccc5c4)n3)cc1)CC2 | 20.3 |
| COc1cc2c(cc1OC)CN(CCc1ccc(-n3nnc(-c4cc(OC)c(OC)cc4NC(=O)c4cnccn4)n3)cc1)CC2 | 3 |
| COc1cc2c(cc1OC)CN(CCc1ccc(-n3nnc(-c4cc(OC)c(OC)cc4NC(=O)c4ccc5ccccc5n4)n3)cc1)CC2 | 2.7 |
| COc1cc2c(cc1OC)CN(CCc1ccc(-n3nnc(-c4cc(OC)c(OC)cc4NC(=O)c4cccnc4)n3)cc1)CC2 | 3 |
| COc1cc2c(cc1OC)CN(CCc1ccc(-n3nnc(-c4cc(OC)c(OC)cc4NC(=O)c4cc5ccccc5cn4)n3)cc1)CC2 | 3.5 |
| COc1cc2c(cc1OC)CN(CCc1ccc(-n3nnc(-c4cc(OC)c(OC)cc4NC(=O)c4nccc5ccccc45)n3)cc1)CC2 | 1.8 |
| COc1cc2c(cc1OC)CN(CCc1ccc(-n3nnc(-c4cc(OC)c(OC)cc4NC(=O)c4ccoc4)n3)cc1)CC2 | 3.5 |
| COc1cc2c(cc1OC)CN(CCc1ccc(-n3nnc(-c4cc(OC)c(OC)cc4NC(=O)c4cccc5cccnc45)n3)cc1)CC2 | 4.3 |
| COc1cc2c(cc1OC)CN(CCc1ccc(-n3nnc(-c4cc(OC)c(OC)cc4NC(=O)c4ccccc4)n3)cc1)CC2 | 3.4 |
| COc1cc2c(cc1OC)CN(CCc1ccc(-n3nnc(-c4cc(OC)c(OC)cc4NC(=O)c4ccc(F)c(F)c4)n3)cc1)CC2 | 3.7 |
| COc1cc2c(cc1OC)CN(CCc1ccc(-n3nnc(-c4cc(OC)c(OC)cc4NC(=O)c4ccc5ccccc5c4)n3)cc1)CC2 | 2.6 |
| COc1cc2c(cc1OC)CN(CCc1ccc(-n3nnc(-c4cc(OC)c(OC)cc4NC(=O)c4cc(=O)c5c(OC)cccc5o4)n3)cc1)CC2 | 49.9 |
| COc1cc2c(cc1OC)CN(CCc1ccc(-n3nnc(-c4cc(OC)c(OC)cc4NC(=O)c4cc(=O)c5cc(F)ccc5o4)n3)cc1)CC2 | 39.3 |
| COc1cc2c(cc1OC)CN(CCc1ccc(-n3nnc(-c4cc(OC)c(OC)cc4NC(=O)c4ccsc4)n3)cc1)CC2 | 4.5 |
| COc1cc2c(cc1OC)CN(CCc1ccc(-n3nnc(-c4cc(OC)c(OC)cc4NC(=O)c4cncc5ccccc45)n3)cc1)CC2 | 3.3 |

Molecular target: T1, Broad substrate specificity ATP-binding cassette transporter ABCG2 (Homo sapiens, UniProt Q9UNQ0)
T1 sequence (Q9UNQ0 whole entry): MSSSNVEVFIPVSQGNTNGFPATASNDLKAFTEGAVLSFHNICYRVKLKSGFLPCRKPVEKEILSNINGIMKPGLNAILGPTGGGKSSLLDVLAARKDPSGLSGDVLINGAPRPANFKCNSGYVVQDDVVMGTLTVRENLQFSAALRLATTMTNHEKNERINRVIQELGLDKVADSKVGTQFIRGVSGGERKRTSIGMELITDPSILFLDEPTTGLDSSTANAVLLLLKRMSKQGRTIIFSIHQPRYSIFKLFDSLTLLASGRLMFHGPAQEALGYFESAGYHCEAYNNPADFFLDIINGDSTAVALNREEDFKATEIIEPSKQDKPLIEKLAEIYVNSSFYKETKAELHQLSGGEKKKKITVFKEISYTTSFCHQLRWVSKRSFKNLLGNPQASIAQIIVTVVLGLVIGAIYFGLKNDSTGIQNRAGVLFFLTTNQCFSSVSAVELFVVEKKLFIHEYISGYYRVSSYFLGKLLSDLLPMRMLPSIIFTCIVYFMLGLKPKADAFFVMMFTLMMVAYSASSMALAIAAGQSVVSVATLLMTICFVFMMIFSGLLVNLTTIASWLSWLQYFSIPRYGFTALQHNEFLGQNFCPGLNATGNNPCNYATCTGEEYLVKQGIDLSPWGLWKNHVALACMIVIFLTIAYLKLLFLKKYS
Assay: Inhibition of sulfasalazine-stimulated BCRP ATP ase activity (unknown origin)
Conditions: not given

| Structure (SMILES) | IC50 |
| --- | --- |
| COc1cc2c(cc1OC)CN(CCc1ccc(NC(=O)c3cc(OC)c(OC)cc3NC(=O)c3cnc4ccccc4c3)cc1)CC2 | 183 nM |
